Test results from patent publication US20130150566A1, “TUMOR-TARGETED TNF-RELATED APOPTOSIS-INDUCING LIGAND'S VARIANT AND THE APPLICATION THEREOF” (TARGETPHARMA LABORATORIES (CHANGZHOU) CO., LTD, priority 2011, published 2013).

Columns and labels:
[1] = system: Hela cells; test: Cell apoptosis by double staining of Annexin V and propidium iodide, Hela; assay type: cell-based, human
Procedure: (§1) The supernatant is removed and the cells are suspended again by 100 μl binding buffer. Annexin V-FITC (BD Pharmgen Company) is added to which final concentration is 2 μg/ml, and the cells are incubated at the room temperature. 10 minutes later, 400 μl binding buffer is supplemented. The cells are transferred into Flow Analyzer Tube, and 1 μg propidium iodide (Sigma Company) is added into each of the tube. The cells are analyzed by Flow Cytometer within 30 minutes. The experiment is repeated three times for each cell line.
(§2) The activity to induce the tumor cell apoptosis of the tumor-targeted TNF-related apoptosis-inducing ligand's variant NGR-TRAIL is appraised using COLO-205, HCT-15 and HT-29 cells separately (FIG. 4). After induced by series concentration gradient TRAIL variant or TRAIL, the tumor cells are detected by Flow Cytometer according to the double staining method of Annexin V-FITC and Pl. […] The sensibility of Hela cell to TRAIL is increased 8 times because of the addition of the short peptide. […] There is a positive correction between the difference of the apoptosis-inducing to these tumor cells between NGR-L-TRAIL and TRAIL and the expression and the abundance of the CD13 molecule on the surface of tumor cell. […] The NGR domain from NGR-L-TRAIL can direct the protein of TRAIL variant to the surface of target cell to enrichment on the cell surface. […]

[2] = system: mutated Jurkat cells from FADD−/− and Caspase-−/−; test: Apoptosis induction in mutated Jurkat cells; assay type: cell-based
[3] = system: COLO-205 cells; test: Cell apoptosis by double staining of Annexin V and propidium iodide, COLO-205; assay type: cell-based; settings: COLO-205 cell
Procedure: as §1, §2

[4] = system: HCT-15 tumor; test: Anti-tumor effect in HCT-15 colon cancer model in nude mice; assay type: in vivo; settings: HCT-15 model; 400 μg/day per mouse combining with CPT-11; 28th day
Procedure: The female nude mice bought from ShangHai Experiment Animal Center are 5-6 weeks old. The mouse tail intravenous injection of 100 μg of purified Asialo GM-1 antibody (Wako Chemicals Company, Japan) that is specific antibody blocking natural killer cells is carried out first. 24 hours later, 100 thousands of COLO-205, HT-15 and HT-29 colon cancer cells is subcutaneously vaccinated at the top right side of the back of a mouse. When the volume of tumor arrives 70 cubic millimeters, the mice are grouped randomly and treated. […] Hydrosoluble camptothecin CPT-11([…], trade name: Campto, from Pharmacia/Upjohn Company) is administrated by intravenous administration once a week, for twice in all. The recombinant protein and camptothecin are diluted by phosphate buffer. The volume of tumor is detected by vernier caliper and calculated according the formula: length is multiplied by the square of width and then is divided by 2.
The anti-tumor effect of tumor-targeted TRAIL used together with chemotherapeutic drug CPT-11 is researched in the present invention. Through COLO-205, HC-15 and HT-29 models of athymic nude mice, the anti-tumor effect of NGR-L-TRAIL used together with chemotherapeutic drug CPT-11 is researched, wherein, COLO-205, HC-15 are sensitive to TRAIL, and COLO-205 is most sensitive, and HT-29 is insensitive to TRAIL. […]

TRAIL: recombinant wild human TNF-related apoptosis-inducing ligand
50% effective concentration (EC50) (inducing apoptosis) [1]: ~0.145 µg/mL
inducing apoptosis [2]: cannot be detected
50% effective concentration (inducing apoptosis) [3]: 3.5 ng/mL
tumor disappeared mice from the 10 administrated mice [4]: 7
